Each structure is given as a SMILES string.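 Five compound concentrations were applied to cells in 96-well plates for 48 hours; endpoints were derived by simple linear interpolation of the resulting dose-response curve. TGI: total growth inhibition.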 A value given as a limit tells only on which side of the number the result lay.

The values that follow come from PubChem BioAssay (NCI).

Some test systems named below: SW-620 colon; TK-10 renal; SF-268 CNS; UO-31 renal; HS 578T breast; RPMI-8226 leukemia; MDA-N; K-562 leukemia; KM12 colon; CCRF-CEM leukemia.
What all share (test): NCI anticancer screen, dose series, 48 h

Regarding `c1ccc(C/C(=N\Nc2nc3ccccc3o2)c2ccccn2)cc1`, the TGI in the assay on SW-620 colon was found to be 4.79 µM; in the assay on TK-10 renal, 1.81 µM; in the assay on SF-268 CNS it was 0.921 µM; in the assay on UO-31 renal, 4.55 µM; in the assay on HS 578T breast it was 29 µM; in the assay on RPMI-8226 leukemia, 0.957 µM. The TGI in the assay on MDA-N turned out to be 5.13 µM; in the assay on K-562 leukemia it was 3.66 µM; with KM12 colon, 6.67 µM; with CCRF-CEM leukemia, 0.0473 µM.

For `CSC1(SC)CCCCCCCCCCC1`, the TGI in the assay on SW-620 colon, in the assay on TK-10 renal, with SF-268 CNS, in the assay on UO-31 renal, with HS 578T breast and in the assay with RPMI-8226 leukemia was above 100 µM in each case. The TGI in the assay with MDA-N was above 100 µM; in the assay on K-562 leukemia, above 100 µM; in the assay on KM12 colon, above 100 µM; with CCRF-CEM leukemia, 48.6 µM.

For the compound `O=C(Nc1ccccc1)N1N=C(c2ccccc2)C1c1ccccc1` (configuration not stated), the TGI with SW-620 colon is above 100 µM; in the assay with TK-10 renal it was above 100 µM; in the assay on SF-268 CNS, 50.8 µM; in the assay on UO-31 renal, 69.6 µM; with HS 578T breast, 60.7 µM; with RPMI-8226 leukemia it was 30.6 µM. In addition, the TGI in the assay with MDA-N is 70.7 µM; in the assay with KM12 colon it was above 100 µM.

In the case of `Cn1c(=O)c2[nH]c(N/N=C3/SCC(=O)N3Cc3ccccc3)nc2n(C)c1=O`, the TGI in the assay on TK-10 renal was above 100 µM; in the assay with SF-268 CNS, above 100 µM; in the assay with UO-31 renal it was above 100 µM; with HS 578T breast, above 100 µM; in the assay on RPMI-8226 leukemia it was above 100 µM; with MDA-N, 36.5 µM. Further, the TGI was above 100 µM in the assay on K-562 leukemia, above 100 µM with KM12 colon and 62.9 µM in the assay with CCRF-CEM leukemia.

On to `C=C(CCC(C(=O)O)C1CCC2(C)C3=C(CCC12C)C1(C)CCC(O)C(C)(C)C1CC3)C(C)C` (configuration not stated), for which the TGI in the assay with SW-620 colon is above 100 µM; in the assay on TK-10 renal it was above 100 µM; in the assay with SF-268 CNS it was above 100 µM; with UO-31 renal, above 100 µM; with HS 578T breast, above 100 µM; in the assay with RPMI-8226 leukemia, 79.7 µM. For the same compound, the TGI in the assay on MDA-N was above 100 µM; in the assay with K-562 leukemia, 43.3 µM; in the assay with KM12 colon, 22.6 µM.

Take `COC(=O)CCc1ccc2c(c1)CC1(C2)Cc2ccc(CCC(=O)OC)cc2C1`: the TGI is above 100 µM with TK-10 renal; above 100 µM in the assay on UO-31 renal; above 100 µM with HS 578T breast; 89.7 µM in the assay on RPMI-8226 leukemia; above 100 µM with MDA-N; above 100 µM in the assay on K-562 leukemia. Also, the TGI was above 100 µM in the assay on KM12 colon and 97.1 µM with CCRF-CEM leukemia.

Consider `CSc1nc(Br)nc2c1ncn2C1CC(Oc2ccc(C)cc2)C(COc2ccc(C)cc2)O1` (configuration not stated), for which the TGI is above 100 µM in the assay with SW-620 colon; above 100 µM with TK-10 renal; above 100 µM in the assay on SF-268 CNS; 65.5 µM with HS 578T breast; above 100 µM in the assay on RPMI-8226 leukemia; above 100 µM with MDA-N. The TGI in the assay with KM12 colon and with CCRF-CEM leukemia was above 100 µM in each case.

Take `CC(C)CC1c2[nH]c3ccccc3c2C[C@H]2C(=O)NC(COC(C)(C)C)C(=O)N12` (some centres not stated): the TGI was above 100 µM with SW-620 colon; 56.3 µM with TK-10 renal; 57.5 µM in the assay on SF-268 CNS; above 100 µM in the assay with UO-31 renal; 37 µM with HS 578T breast; 58 µM with RPMI-8226 leukemia. Further, the TGI is 51.8 µM with MDA-N, 92.7 µM in the assay on K-562 leukemia and 80.2 µM with KM12 colon.

Turning to `CC(=O)OCC1OC(n2c3c(c(-c4ccco4)c(C#N)c2=S)CCCC3)C(OC(C)=O)C(OC(C)=O)C1OC(C)=O` (configuration not stated), the TGI with SW-620 colon is above 100 µM; in the assay on TK-10 renal, 24.8 µM; in the assay on SF-268 CNS, above 31.6 µM; with UO-31 renal, above 31.6 µM; in the assay with HS 578T breast, 85.6 µM; in the assay with RPMI-8226 leukemia it was above 100 µM. The TGI in the assay on MDA-N and in the assay on KM12 colon was above 31.6 µM in each case.

For `c1csc(-c2ccc(-c3ccc(-c4cccs4)s3)s2)c1`, the TGI in the assay with SW-620 colon, in the assay on TK-10 renal, in the assay with SF-268 CNS, in the assay with UO-31 renal, with HS 578T breast and in the assay with RPMI-8226 leukemia was above 100 µM each time. For the same compound, the TGI with MDA-N and with KM12 colon was above 100 µM each time.

Regarding `COc1ccccc1OC/C(N=Cc1ccncc1)=N/NC(=O)c1ccncc1`, the TGI in the assay on SW-620 colon, with TK-10 renal, in the assay with SF-268 CNS, in the assay on HS 578T breast, in the assay with RPMI-8226 leukemia and in the assay with MDA-N was above 100 µM throughout. In addition, the TGI in the assay with K-562 leukemia, with KM12 colon and in the assay with CCRF-CEM leukemia was above 100 µM each time.

`CCOc1ccc(NC(=S)/N=C/C(C(=O)Nc2ccccc2C)=C(\C)O)cc1`: the TGI with SW-620 colon, with TK-10 renal, in the assay on SF-268 CNS, in the assay on UO-31 renal, in the assay on HS 578T breast and in the assay with RPMI-8226 leukemia was above 100 µM each time. For the same compound, the TGI in the assay with MDA-N, with K-562 leukemia and in the assay on KM12 colon was above 100 µM throughout.

Consider `CC(=O)Oc1ccc2c(c1)c1c(OC(C)=O)c3ccccc3c(OC(C)=O)c1n2Cc1cccc(C)c1`, for which the TGI with TK-10 renal was above 100 µM; with SF-268 CNS, above 100 µM; with UO-31 renal, above 100 µM; with HS 578T breast it was 78.3 µM; in the assay with RPMI-8226 leukemia, 74.4 µM; in the assay on MDA-N it was above 100 µM. For the same compound, the TGI was above 100 µM in the assay on K-562 leukemia, above 100 µM in the assay with KM12 colon and 62.6 µM in the assay on CCRF-CEM leukemia.

Regarding `Cc1cc(S(=O)(=O)NC(=NCC(=O)NN)NN)c(S)cc1Cl`, the TGI in the assay with SW-620 colon, in the assay with TK-10 renal, in the assay with SF-268 CNS, in the assay on HS 578T breast, in the assay with RPMI-8226 leukemia and with MDA-N was above 10 µM in each case. Moreover, the TGI in the assay with K-562 leukemia, with KM12 colon and in the assay on CCRF-CEM leukemia was above 10 µM in each case.

In the case of `COc1cc(/C=C2\C[C@H]3[C@@H]4CC=C5C[C@@H](N6CCCC6)CC[C@]5(C)[C@H]4CC[C@]3(C)[C@H]2OC(C)=O)cc(OC)c1OC`, the TGI in the assay with SW-620 colon was found to be 34.7 µM; in the assay on TK-10 renal, 34.8 µM; in the assay with SF-268 CNS, 27.7 µM; in the assay with UO-31 renal, 30 µM; in the assay with HS 578T breast it was 35.1 µM; in the assay with RPMI-8226 leukemia it was 29.6 µM. Moreover, the TGI is 23.3 µM with MDA-N, 31.2 µM in the assay with KM12 colon and above 100 µM in the assay with CCRF-CEM leukemia.
